Publication PMC5815522 (Bioorganic & medicinal chemistry, 2016)
Several values for one entry are separate records, joined by “and”; a condition that tells them apart may be missing. Equal entries are not always repeated. Where two headings read alike, the source gives them in different places.

Legend:
[1] = in CH3OH, cited from earlier work; for Quantum yield for fluorescence ΦFL: excitation at 532 nm, ± SD
CD3+ (CD25+) cells = format: cell-based, human
CD3+ (resting T cells) = format: cell-based, human
[2] = CH3OH, ± SD; cited from earlier work
HUT-78 cells [3] = format: cell-based, human
[4] = ± SD; cited from earlier work
[5] = tested on: CD3+ cells of SEB-stimulated PBMCs; format: cell-based, human
HUT-78 cells [6] = assay: Uptake in presence and absence of verapamil by flow cytometry; format: cell-based, human; settings: 2 × 10^−7 M selenorhodamine, 1 × 10^−4 M VER, 1 h, mean ± SD
P-gp [7] = target: T1, P-gp (Homo sapiens, UniProt P08183); assay: P-gp transport studies across MDCKII-MDR1 monolayers; settings: for PPassive: mean of PAB and PBA in the fully inhibited system; for PBA/PAB / PAB, transport in absorptive direction / PBA, transport in secretory direction: no inhibitor; for PAB, transport in absorptive direction / PBA, transport in secretory direction / PAB, transport in absorptive direction (+inh) / PBA, transport in secretory direction (+inh): 5 × 10^−6 M dye, 4.3 mg mL^−1 BSA, ± SD; for PAB, transport in absorptive direction (+inh) / PBA, transport in secretory direction (+inh): with 5 × 10^−6 M inhibitor 15
[8] = in CH3OH; cited from earlier work
Colo-26 cells = settings: P-gp-expressing Colo-26 cells; cited from earlier work
CD4+ (helper T cells) = format: cell-based, human
[9] = format: physicochemical; settings: air-saturated CH3OH, ± SD
[10] = Steady-state fluorescence spectra and quantum yields in CH3OH; format: physicochemical; settings: for Quantum yield for fluorescence ΦFL: excitation at 532 nm, ± SD
[11] = Electronic absorption spectra in MeOH; format: physicochemical; settings: in CH3OH
CD8+ (cytotoxic T cells) = format: cell-based, human
CD3+ (CD25−) cells = format: cell-based, human
P-gp [12] = target: T1, P-gp; settings: cited from earlier work; for PPassive: mean of PAB and PBA in the fully inhibited system; for PAB, transport in absorptive direction / PBA, transport in secretory direction / PBA/PAB: no inhibitor; for PAB, transport in absorptive direction (+inh) / PBA, transport in secretory direction (+inh): with inhibitor
HUT-78 cells [13] = assay: Colocalization with organelle reporters by ImageStream imaging flow cytometry; format: cell-based, human; settings: ± SD

T1 sequence (P08183 whole entry): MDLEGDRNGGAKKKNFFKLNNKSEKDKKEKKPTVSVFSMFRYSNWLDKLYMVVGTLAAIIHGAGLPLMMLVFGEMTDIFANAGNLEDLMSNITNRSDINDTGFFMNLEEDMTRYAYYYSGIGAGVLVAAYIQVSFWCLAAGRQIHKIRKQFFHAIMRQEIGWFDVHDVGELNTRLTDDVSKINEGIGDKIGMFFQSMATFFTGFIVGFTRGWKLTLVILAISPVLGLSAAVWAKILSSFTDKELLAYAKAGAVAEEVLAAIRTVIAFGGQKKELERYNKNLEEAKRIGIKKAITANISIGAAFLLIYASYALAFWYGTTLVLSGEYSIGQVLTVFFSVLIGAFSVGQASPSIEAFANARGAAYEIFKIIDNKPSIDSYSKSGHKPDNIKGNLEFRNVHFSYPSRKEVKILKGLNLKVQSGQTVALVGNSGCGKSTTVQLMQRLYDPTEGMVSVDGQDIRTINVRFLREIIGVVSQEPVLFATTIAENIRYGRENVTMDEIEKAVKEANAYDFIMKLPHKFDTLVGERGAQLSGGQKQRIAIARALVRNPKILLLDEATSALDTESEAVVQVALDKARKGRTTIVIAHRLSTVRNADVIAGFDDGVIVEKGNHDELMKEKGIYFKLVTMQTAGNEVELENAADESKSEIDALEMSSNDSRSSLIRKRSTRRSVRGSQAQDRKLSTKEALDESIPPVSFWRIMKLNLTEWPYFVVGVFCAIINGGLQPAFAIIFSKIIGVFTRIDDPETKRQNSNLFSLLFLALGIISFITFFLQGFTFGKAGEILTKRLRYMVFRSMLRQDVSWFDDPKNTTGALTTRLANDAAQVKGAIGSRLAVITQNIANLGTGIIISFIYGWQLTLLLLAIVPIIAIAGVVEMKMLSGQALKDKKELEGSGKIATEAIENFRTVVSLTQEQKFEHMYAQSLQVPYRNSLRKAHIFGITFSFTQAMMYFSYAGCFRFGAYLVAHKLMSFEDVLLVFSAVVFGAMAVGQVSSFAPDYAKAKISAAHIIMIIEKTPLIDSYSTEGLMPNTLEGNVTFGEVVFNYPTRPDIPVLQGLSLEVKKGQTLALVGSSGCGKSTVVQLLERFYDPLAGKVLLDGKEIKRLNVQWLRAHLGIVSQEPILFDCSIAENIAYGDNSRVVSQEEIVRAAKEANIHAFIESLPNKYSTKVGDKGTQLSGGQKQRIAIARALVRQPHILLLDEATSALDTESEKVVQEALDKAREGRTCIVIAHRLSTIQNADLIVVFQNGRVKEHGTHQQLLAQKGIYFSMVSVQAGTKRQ

| Compound | Quantum yield for fluorescence ΦFL [1] | Fluorescence emission maximum λFL [1] | % survival CD3+ (CD25+) (CD3+ (CD25+) cells) | Quantum yield for the generation of singlet oxygen Φ(1O2) [2] | % survival HUT-78 (HUT-78 cells [3]) | n-octanol/water partition coefficient log P [4] | % survival CD3+ [5] | ratio of uptake +VER/−VER (HUT-78 cells [6]) | PPassive (P-gp [7]) | PBA/PAB (P-gp [7]) | PAB, transport in absorptive direction (P-gp [7]) | PBA, transport in secretory direction (P-gp [7]) | PAB, transport in absorptive direction (+inh) (P-gp [7]) | PBA, transport in secretory direction (+inh) (P-gp [7]) | Absorption maximum λmax [8] | Molar extinction coefficient ε [8] | ratio of uptake +VER/−VER (Colo-26 cells) | Quantum yield for the generation of singlet oxygen Φ(1O2) [9] | Fluorescence emission maximum λFL [10] | Quantum yield for fluorescence ΦFL [10] | also measured |
| --- | --- | --- | --- | --- | --- | --- | --- | --- | --- | --- | --- | --- | --- | --- | --- | --- | --- | --- | --- | --- | --- |
| O=C(c1ccc(C2=c3cc4c5c(c3[Se]c3c2cc2c6c3CCCN6CCC2)CCC[N+]=5CCC4)s1)N1CCCCC1.[Cl-] [Compd 6, 9-(5-(piperidylcarbamoyl)thiophen-2-yl)-2,3,6,7,12,13,16,17-octa-hydro[1H,5H,11H,15H]-10-selenoxantheno-[2,3,4-ij:5,6,7-i′j′]diquinolizin-18-ium chloride] | 0.012 ± 0.001 | 660 nm | 37.4 ± 3.2% | 0.64 ± 0.03 | 9.3 ± 2.7% | 3.71 ± 0.08 | 65% | 1.13 ± 0.08 | ~2 ×10^−9 m s^−1 | 37 | 2.1 ± 0.1 ×10^−9 m s^−1 | 78 ×10^−9 m s^−1 | 0.24 ± 0.1 ×10^−9 m s^−1 | 4.8 ± 0.1 ×10^−9 m s^−1 | 626 nm | 135000 M⁻¹ cm⁻¹ | 7.6 | – | – | – | % survival of the CD3+, CD4+, and CD8+ populations (CD3+ (resting T cells)): 62–78%; % of HUT-78 cells to which the photosensitizer was phototoxic (HUT-78 cells [3]): > 90% and 91% |
| C[N+]1=c2cc3c(cc2C(C)(C)CC1)=C(c1ccc(C(=S)N2CCCCC2)s1)c1cc2c4c(c1[Se]3)CCCN4CCC2.[Cl-] [Compd 7] | – | – | 2.6 ± 0.9% | – | 5.1 ± 0.9% | – | 5.7 ± 2.6% | – | <1 ×10^−9 m s^−1 | 20 | 0.44 ± 0.1 ×10^−9 m s^−1 | 8.8 ×10^−9 m s^−1 and 8.8 ± 0.3 ×10^−9 m s^−1 | 0.46 ± 0.1 ×10^−9 m s^−1 | 0.32 ± 0.2 ×10^−9 m s^−1 | – | – | – | 0.54 ± 0.03 | 650 nm | 0.008 ± 0.001 | % survival CD4+ (CD4+ (helper T cells)): 0 ± 0%; Absorption maximum λmax [11]: 620 nm; Molar extinction coefficient ε [11]: 92000 M⁻¹ cm⁻¹; % survival CD8+ (CD8+ (cytotoxic T cells)): 0 ± 0% |
| CN1CCC(C)(C)c2cc3c(cc21)[Se]c1cc2c(cc1=C3c1ccc(C(=O)N3CCCCC3)s1)C(C)(C)CC[N+]=2C.[Cl-] [Compd 10] | – | – | 12.5 ± 0.4% | – | 5.4 ± 0.8% | – | 22.2 ± 2.9% | – | ~2 ×10^−9 m s^−1 | 36 | 1.8 ± 1 ×10^−9 m s^−1 | 65 ×10^−9 m s^−1 and 65 ± 6 ×10^−9 m s^−1 | 0.51 ± 0.1 ×10^−9 m s^−1 | 4.0 ± 0.7 ×10^−9 m s^−1 | – | – | – | 0.95 ± 0.03 | 645 nm | 0.007 ± 0.001 | Absorption maximum λmax [11]: 614 nm; Molar extinction coefficient ε [11]: 105000 M⁻¹ cm⁻¹; % survival CD3+ (CD25−) (CD3+ (CD25−) cells): 29.8 ± 5.6% |
| CN1CCC(C)(C)c2cc3c(cc21)[Se]c1cc2c(cc1=C3c1ccc(C(=S)N3CCCCC3)s1)C(C)(C)CC[N+]=2C.[Cl-] [Compd 9] | – | – | 7.0 ± 0.7% | – | 8.1 ± 4.1% | – | 9.2 ± 2.2% | – | <1 ×10^−9 m s^−1 | 4 | – | 6.3 ×10^−9 m s^−1 and 6.3 ± 1.2 ×10^−9 m s^−1 | 0.51 ± 0.1 ×10^−9 m s^−1 | 0.13 ± 0.1 ×10^−9 m s^−1 | – | – | – | 0.64 ± 0.03 | 645 nm | 0.006 ± 0.001 | % survival CD4+ (CD4+ (helper T cells)): 0 ± 0%; Absorption maximum λmax [11]: 614 nm; Molar extinction coefficient ε [11]: 93000 M⁻¹ cm⁻¹; % survival CD8+ (CD8+ (cytotoxic T cells)): 0 ± 0% |
| S=C(c1ccc(C2=c3cc4c5c(c3[Se]c3c2cc2c6c3CCCN6CCC2)CCC[N+]=5CCC4)s1)N1CCCCC1.[Cl-] [Compd 5, 9-(5-(piperidylcarbamothioyl)thiophen-2-yl)-2,3,6,7,12,13,16,17-octahydro-[1H,5H,11H,15H]-10-selenoxantheno[2,3,4-ij:5,6,7-i′j′]diquinolizin-18-ium chloride] | 0.010 ± 0.002 | 660 nm | 4.8 ± 1.0% | 0.51 ± 0.03 | 2.0 ± 0.9% | 4.1 ± 0.2 | 12.1 ± 2.6% | 1.17 ± 0.13 | <1 ×10^−9 m s^−1 | 57 | 0.3 ± 0.3 ×10^−9 m s^−1 | 18 ×10^−9 m s^−1 | 0.51 ± 0.3 ×10^−9 m s^−1 | 0.57 ± 0.1 ×10^−9 m s^−1 | 626 nm | 99000 M⁻¹ cm⁻¹ | 2.9 | – | – | – | % survival CD3+ (CD25−) (CD3+ (CD25−) cells): 17.1 ± 4.3% |
| C[N+]1=c2cc3c(cc2C(C)(C)CC1)=C(c1ccc(C(=O)N2CCCCC2)s1)c1cc2c4c(c1[Se]3)CCCN4CCC2.[Cl-] [Compd 8] | – | – | 5.0 ± 0.9% | – | 6.0 ± 0.2% | – | 10.3 ± 1.4% | – | ~1 ×10^−9 m s^−1 | 48 | 1.4 ± 0.8 ×10^−9 m s^−1 | 66 ×10^−9 m s^−1 and 66 ± 10 ×10^−9 m s^−1 | 0.18 ± 0.1 ×10^−9 m s^−1 | 2.8 ± 0.2 ×10^−9 m s^−1 | – | – | – | 0.64 ± 0.03 | 650 nm | 0.009 ± 0.001 | Absorption maximum λmax [11]: 620 nm; Molar extinction coefficient ε [11]: 110000 M⁻¹ cm⁻¹ |
| CN1CCC(C)(C)c2cc3c(-c4ccc(C(=S)N5CCCCC5)s4)c4ccc(=[N+](C)C)cc-4[se]c3cc21.[Cl-] [Compd 3] | 0.008 ± 0.001 | 634 nm | 9.2 ± 1.0% | 0.44 ± 0.03 | 8.5 ± 1.2% | 1.61 ± 0.06 | 21.0 ± 3.2% | 1.27 ± 0.19 | – | – | – | – | – | – | 608 nm | 81100 M⁻¹ cm⁻¹ | 1.9 | – | – | – | PPassive (P-gp [12]): ~2 ×10^−9 m s^−1; PAB, transport in absorptive direction (P-gp [12]): 1.9 ± 0.5 ×10^−9 m s^−1; PBA, transport in secretory direction (P-gp [12]): 29 ×10^−9 m s^−1 and 29 ± 3 ×10^−9 m s^−1; PBA/PAB (P-gp [12]): 15; PAB, transport in absorptive direction (+inh) (P-gp [12]): 1.7 ± 0.2 ×10^−9 m s^−1; PBA, transport in secretory direction (+inh) (P-gp [12]): 1.8 ± 0.1 ×10^−9 m s^−1; % survival CD3+ (CD25−) (CD3+ (CD25−) cells): 29.1 ± 5.2% |
| CN1CCC(C)(C)c2cc3c(-c4ccc(C(=O)N5CCCCC5)s4)c4ccc(=[N+](C)C)cc-4[se]c3cc21.[Cl-] [Compd 4] | 0.009 ± 0.001 | 634 nm | 17.4 ± 1.7% | 0.48 ± 0.03 | 6.7 ± 1.2% | 2.23 ± 0.04 | 26.6 ± 4.6% | 1.33 ± 0.04 | – | – | – | – | – | – | 609 nm | 87300 M⁻¹ cm⁻¹ | 5.1 | – | – | – | PPassive (P-gp [12]): ~6 ×10^−9 m s^−1; PAB, transport in absorptive direction (P-gp [12]): 0.9 ± 0.3 ×10^−9 m s^−1; PBA, transport in secretory direction (P-gp [12]): 164 ×10^−9 m s^−1 and 164 ± 4 ×10^−9 m s^−1; PBA/PAB (P-gp [12]): 182; PAB, transport in absorptive direction (+inh) (P-gp [12]): 1.0 ± 0.1 ×10^−9 m s^−1; PBA, transport in secretory direction (+inh) (P-gp [12]): 11.1 ± 0.2 ×10^−9 m s^−1; % survival CD3+ (CD25−) (CD3+ (CD25−) cells): 32.3 ± 6.0% |
| MitoTracker Red [Compd 17] | – | – | – | – | – | – | – | – | – | – | – | – | – | – | – | – | – | – | – | – | mean bright detail similarity score with 18 (LYS) (HUT-78 cells [13]; lysosome-specific reporter LysoTracker): 0.6 ± 0.4; mean bright detail similarity score with 16 (MTG) (HUT-78 cells [13]; mitochondrial reporter MitoTracker Green): 3.1 ± 0.7 |
